From ChEMBL document CHEMBL1127987, “()11-Amino-2,6-dimethyl-1,2,3,4-tetrahydro-6H-quinindolin-1-one, a novel gabaA modulator with potential anxiolytic activity” (Bioorg Med Chem Lett, 1994)

How the values were obtained:
[1] = molecular target: GABA-A receptor; anion channel; test: Displacement of [3H]flunitrazepam from rat cerebral cortex; type: tissue-based
[2] = species: Rattus norvegicus; test: Minimum effective peroral dose in Geller-Seifter paradigm; type: functional; conditions: po, read-out: MED
[3] = molecular target: GABA-A receptor; anion channel; test: Inhibition of [35S]TBPS binding to Gamma-aminobutyric acid A (GABA-A) receptor of rat brain in the presence of 5 uM GABA
[4] = test system: Rattus norvegicus; test: Punished responding phase in Geller-Seifter test was determined at 1 hr post-dose of 20 mg/Kg p.o.; type: functional
[5] = test system: Rattus norvegicus; test: Punished responding phase in Geller-Seifter test was determined at 2 hr post-dose of 20 mg/Kg p.o.; type: functional
[6] = test system: Rattus norvegicus; test: Number of animals responding out of those tested (Nr/N) in Geller-Seifter test was determined at 2 hr post-dose of 20 mg/Kg p.o. (Animals tested 8); type: functional
[7] = test system: Rattus norvegicus; test: Number of animals responding out of those tested (Nr/N) in Geller-Seifter test was determined at 1 hr post-dose of 20 mg/Kg p.o. (Animals tested 6); type: functional
[8] = test system: Rattus norvegicus; test: Punished responding phase in Geller-Seifter test was determined at 1 hr post-dose of 50 mg/Kg p.o.; type: functional
[9] = test system: Rattus norvegicus; test: Number of animals responding out of those tested (Nr/N) in Geller-Seifter test was determined at 1 hr post-dose of 100 mg/Kg p.o. (Animals tested 16); type: functional
[10] = test system: Rattus norvegicus; test: Number of animals responding out of those tested (Nr/N) in Geller-Seifter test was determined at 2 hr post-dose of 50 mg/Kg p.o. (Animals tested 16); type: functional
[11] = test system: Rattus norvegicus; test: Number of animals responding out of those tested (Nr/N) in Geller-Seifter test was determined at 1 hr post-dose of 5 mg/Kg p.o. (Animals tested 6); type: functional
[12] = test system: Rattus norvegicus; test: Number of animals responding out of those tested (Nr/N) in Geller-Seifter test was determined at 2 hr post-dose of 20 mg/Kg p.o. (Animals tested 16); type: functional
[13] = test system: Rattus norvegicus; test: Number of animals responding out of those tested (Nr/N) in Geller-Seifter test was determined at 1 hr post-dose of 10 mg/Kg p.o. (Animals tested 15); type: functional
[14] = test system: Rattus norvegicus; test: Punished responding phase in Geller-Seifter test was determined at 2 hr post-dose of 50 mg/Kg p.o.; type: functional
[15] = test system: Rattus norvegicus; test: Number of animals responding out of those tested (Nr/N) in Geller-Seifter test was determined at 1 hr post-dose of 20 mg/Kg p.o. (Animals tested 16); type: functional
[16] = test system: Rattus norvegicus; test: Punished responding phase in Geller-Seifter test was determined at 1 hr post-dose of 5 mg/Kg p.o.; type: functional
[17] = test system: Rattus norvegicus; test: Punished responding phase in Geller-Seifter test was determined at 1 hr post-dose of 10 mg/Kg p.o.; type: functional
[18] = test system: Rattus norvegicus; test: Number of animals responding out of those tested (Nr/N) in Geller-Seifter test was determined at 1 hr post-dose of 50 mg/Kg p.o. (Animals tested 16); type: functional
[19] = test system: Rattus norvegicus; test: Punished responding phase in Geller-Seifter test was determined at 1 hr post-dose of 100 mg/Kg p.o.; type: functional
[20] = test system: GABA-A receptor; anion channel; test: Displacement of [3H]flunitrazepam from rat cerebral cortex (Insoluble); type: tissue-based
[21] = molecular target: T1, GABA-A receptor; anion channel (Rattus norvegicus) (UniProt O09028+P15431+P18506+P18508+P19969+P20236+P23574+P23576+P28471+P28473+P30191+P62813+P63079+P63138+Q91ZM7+Q9ES14); conditions: Cerebral cortex, 0.12 uM
Description: Inhibition of [3H]Flunitrazepam binding to rat cerebral cortex at 0.12 uM

[22] = test system: Rattus norvegicus; test: Number of animals responding out of those tested (Nr/N) in Geller-Seifter test was determined at 1 hr post-dose of 5 mg/Kg p.o. (Animals tested 8); type: functional
[23] = test system: Rattus norvegicus; test: Punished responding phase in Geller-Seifter test was determined at 2 hr post-dose of 5 mg/Kg p.o.; type: functional
[24] = test system: Rattus norvegicus; test: Number of animals responding out of those tested (Nr/N) in Geller-Seifter test was determined at 2 hr post-dose of 5 mg/Kg p.o. (Animals tested 16); type: functional
[25] = molecular target: T1, GABA-A receptor; anion channel (Rattus norvegicus); conditions: 0.01 uM
Description: Inhibition of [35S]TBPS binding to Gamma-aminobutyric acid A (GABA-A) receptor of rat brain in the presence of 5 uM GABA at 0.01 uM

[26] = test system: Rattus norvegicus; test: Punished responding phase in Geller-Seifter test was determined at 1 hr post-dose of 2.5 mg/Kg p.o.; type: functional
[27] = test system: Rattus norvegicus; test: Number of animals responding out of those tested (Nr/N) in Geller-Seifter test was determined at 1 hr post-dose of 5 mg/Kg p.o. (Animals tested 14); type: functional
[28] = test system: Rattus norvegicus; test: Punished responding phase in Geller-Seifter test was determined at 2 hr post-dose of 10 mg/Kg p.o.; type: functional
[29] = test system: Rattus norvegicus; test: Number of animals responding out of those tested (Nr/N) in Geller-Seifter test was determined at 2 hr post-dose of 50 mg/Kg p.o. (Animals tested 6); type: functional
[30] = test system: Rattus norvegicus; test: Number of animals responding out of those tested (Nr/N) in Geller-Seifter test was determined at 1 hr post-dose of 100 mg/Kg p.o. (Animals tested 6); type: functional
[31] = test system: Rattus norvegicus; test: Number of animals responding out of those tested (Nr/N) in Geller-Seifter test was determined at 1 hr post-dose of 10 mg/Kg p.o. (Animals tested 6); type: functional
[32] = test system: Rattus norvegicus; test: Number of animals responding out of those tested (Nr/N) in Geller-Seifter test was determined at 2 hr post-dose of 20 mg/Kg p.o. (Animals tested 6); type: functional
[33] = test system: Rattus norvegicus; test: Punished responding phase in Geller-Seifter test was determined at 2 hr post-dose of 100 mg/Kg p.o.; type: functional
[34] = test system: Rattus norvegicus; test: Number of animals responding out of those tested (Nr/N) in Geller-Seifter test was determined at 1 hr post-dose of 2.5 mg/Kg p.o. (Animals tested 6); type: functional
[35] = test system: Rattus norvegicus; test: Number of animals responding out of those tested (Nr/N) in Geller-Seifter test was determined at 2 hr post-dose of 100 mg/Kg p.o. (Animals tested 6); type: functional
[36] = test system: Rattus norvegicus; test: Number of animals responding out of those tested (Nr/N) in Geller-Seifter test was determined at 1 hr post-dose of 50 mg/Kg p.o. (Animals tested 6); type: functional
[37] = test system: Rattus norvegicus; test: Number of animals responding out of those tested (Nr/N) in Geller-Seifter test was determined at 2 hr post-dose of 10 mg/Kg p.o. (Animals tested 14); type: functional

Cc1nc2c(c(N)c1C(=O)O)c1ccccc1n2C
IC50 [1]: > 100 µM
minimal effective dose [2]: > 50 mg/kg
IC50 ([3]; read-out: IC50): > 100 µM

CCCC(=O)c1c(C)nc2c(c1N)c1ccccc1n2C
minimal effective dose [2]: 20 mg/kg
IC50 ([3]; read-out: IC50): 2.3 µM

CCC(=O)c1c(C)nc2c(c1N)c1ccccc1n2C
IC50 [1]: > 100 µM
minimal effective dose [2]: 20 mg/kg
Change [4]: 41%
Change [5]: 28%
IC50 ([3]; read-out: IC50): 1.6 µM
Nr/N [6]: 5
Nr/N [7]: 5

CCOC(=O)c1c(C)nc2c(c1N)c1ccccc1n2C
IC50 [1]: > 100 µM
minimal effective dose [2]: 10 mg/kg
Change [4]: 22%
Change [8]: 63%
Nr/N [9]: 14
Change [5]: 6%
Nr/N [10]: 6
Nr/N [11]: 5
Nr/N [12]: 6
Nr/N [13]: 10
Change [14]: 4%
IC50 ([3]; read-out: IC50): 2 µM
Nr/N [15]: 12
Change [16]: 2%
Change [17]: 20%
Nr/N [18]: 15
Change [19]: 122%

Cn1c2ccccc2c2c(N)c3c(nc21)CCOC3=O
minimal effective dose [2]: > 20 mg/kg
IC50 [3]: Insoluble
IC50 [20]: Insoluble

CN1C(=O)CN=C(c2ccccc2)c2cc(Cl)ccc21 [DIAZEPAM]
minimal effective dose [2]: 2.5 mg/kg
inhibition [21]: 100%
Nr/N [22]: 6
Change [23]: 38%
Change [16]: 57%
Nr/N [24]: 8
inhibition [25]: < 50%

CCC1CCc2nc3c(c(N)c2C1=O)c1ccccc1n3C (centres undefined)
minimal effective dose [2]: 20 mg/kg
IC50 ([3]; read-out: IC50): 0.94 µM

CC1CCc2nc3c(c(N)c2C1=O)c1ccccc1n3C (centres undefined)
IC50 [1]: > 100 µM
Change [26]: 0%
minimal effective dose [2]: 5 mg/kg
Nr/N [27]: 8
Change [28]: 22%
Change [4]: 52%
Change [8]: 146%
Nr/N [29]: 6
Nr/N [30]: 6
Change [5]: 36%
Nr/N [31]: 5
Nr/N [32]: 6
Change [14]: 62%
IC50 ([3]; read-out: IC50): 0.95 µM
Change [33]: 141%
Change [16]: 19%
Change [17]: 43%
Nr/N [34]: 0
Nr/N [35]: 6
Nr/N [36]: 5
Nr/N [37]: 7
Nr/N [7]: 5
Change [19]: 137%
